Test results published in patent publication US20210038607A1, “OXADIAZOLYLTHIOPHENE DERIVATIVES USEFUL AS HISTONE DEACETYLASE INHIBITORS” (Karus Therapeutics Limited, priority 2018, published 2021).

Legend:
[1] = test system: acetylated α-tubulin in A549 lung adenocarcinoma cells; assay: Acetylated α-tubulin in-cell western (ICW) assay; assay type: cell-based; conditions: Homo sapiens, 16 h exposure, relative to 40 μM scriptaid positive control, read-out: EC50 Ac-α-tubulin, A549 cells
Procedure: (§1) Acetylated α-Tubulin and Histone H3 in-Cell Western (ICW) Assays
(§2) A549 cells were maintained in DMEM (Life Technologies)+10% FBS+2 mM glutamine & penicillin (10 μg/mL) and streptomycin ([…]. 10,000 A549 cells per well were plated into 96 well tissue culture plates (Corning) and incubated at 37° C. overnight in a humidified atmosphere containing 5% CO2 prior to addition of compounds. Compounds (dissolved in 100% DMSO) were diluted into cell culture media at 2× final assay concentration. 2× compound or DMSO (negative control) were added to cells (final DMSO concentration 0.4%). Untreated control wells received media. For acetylated α-tubulin assays, 40 μM scriptaid was used as a positive control. For acetylated histone H3 assays, 40 μM Trichostatin A (TSA) was used as a positive control. Cells were exposed to compound at 37° C. in a humidified atmosphere containing 5% CO2 for 16 h.
(§3) Measurement of the impact of compounds on levels of acetylated α-tubulin and histone H3 was performed using specific antibodies and near-infrared immunofluorescent dyes. Briefly, media was removed from wells of assay plates. Cells were washed once with PBS and fixed in 3.7% formaldehyde PBS solution at room temperature for 20 min. Cells were then permeabilised by washing 5 times in 0.1% triton-X-100 PBS at room temperature with gentle agitation for 5 min per wash. Non-specific antibody staining was blocked by the addition of Odyssey blocking buffer (Li-Cor) for 1.5 h at room temperature with gentle agitation. Cells were then incubated with primary antibody (mouse monoclonal anti-acetylated α-tubulin (clone 6-11B-1), Sigma or rabbit polyclonal anti-acetylated histone H3, Millipore) diluted in Odyssey blocking buffer at 4° C. with gentle shaking overnight (no antibody control and secondary antibody only wells were incubated with Odyssey blocking buffer only). Cells were washed five times with 0.1% tween PBS and labelled with secondary antibody (IR dye 800CW-conjugated goat anti mouse IgG or -goat anti rabbit IgG, Li-Cor) and cell stains Sapphire700 (Li-Cor) and Draq5 (Biostatus) diluted in Odyssey blocking buffer at room temperature in the dark with gentle shaking for 1 h (no antibody control wells were incubated with Odyssey blocking buffer only and secondary antibody only with diluted secondary antibody but no cell stains). Cells were washed with 0.1% Tween PBS five times and scanned using a Li-Cor Odyssey SA plate reader in 700 and 800 nm channels. Acetylated α-tubulin or histone H3 signal was normalised to cell number using the cell stain signal. Percentage increase in acetylated α-tubulin or histone H3 after compound treatment over the mean of DMSO treated controls, relative to scriptaid and TSA positive controls, respectively was calculated. EC50 values were calculated using GraphPad Prism software and nonlinear regression with 0% bottom and 100% top constraints.

[2] = test system: acetylated histone H3 in A549 lung adenocarcinoma cells; assay: Acetylated histone H3 in-cell western (ICW) assay; assay type: cell-based; conditions: Homo sapiens, 16 h exposure, relative to 40 μM Trichostatin A positive control, read-out: EC50 Ac-histone H3, A549 cells
Procedure: as §1, §2, §3

SMILES: O=C(c1cnnc(N(Cc2ccc(-c3noc(C(F)(F)F)n3)s2)c2cnccn2)c1)N1CC[S+]([O-])CC1 [Example FU, 4-{6-[(Pyrazin-2-yl)({5-[5-(trifluoromethyl)-1,2,4-oxadiazol-3-yl]thiophen-2-yl}methyl)amino]pyridazine-4-carbonyl}-1lambda4-thiomorpholin-1-one]
- EC50 [1]: ≤ 1000 nM
- EC50 [2]: ≥ 10 µM

SMILES: O=C(c1ccc(N(Cc2ccc(-c3noc(C(F)(F)F)n3)s2)c2cnccn2)nn1)N1C[C@@H]2C[C@H]1CO2 [Example FE, 6-[(1S,4S)-2-Oxa-5-azabicyclo[2.2.1]heptane-5-carbonyl]-N-(pyrazin-2-yl)-N-({5-[5-(trifluoromethyl)-1,2,4-oxadiazol-3-yl]thiophen-2-yl}methyl)pyridazin-3-amine]
- EC50 [1]: 1000 to 10000 nM
- EC50 [2]: ≥ 10 µM

SMILES: O=C(c1cnnc(N(Cc2ccc(-c3noc(C(F)(F)F)n3)s2)c2cnccn2)c1)N1CCCC1 [Example EA, N-(Pyrazin-2-yl)-5-(pyrrolidine-1-carbonyl)-N-({5-[5-(trifluoromethyl)-1,2,4-oxadiazol-3-yl]thiophen-2-yl}methyl)pyridazin-3-amine]
- EC50 [1]: ≤ 1000 nM
- EC50 [2]: ≥ 10 µM

SMILES: O=C(c1ccc(N(Cc2ccc(-c3noc(C(F)(F)F)n3)s2)c2cnccn2)nn1)N1CCCCC1 [Example FG, 6-(Piperidine-1-carbonyl)-N-(pyrazin-2-yl)-N-({5-[5-(trifluoromethyl)-1,2,4-oxadiazol-3-yl]thiophen-2-yl}methyl)pyridazin-3-amine]
- EC50 [1]: ≤ 1000 nM
- EC50 [2]: ≥ 10 µM

SMILES: [O-][S+]1CCN(Cc2ccc(N(Cc3ccc(-c4noc(C(F)(F)F)n4)s3)c3cnccn3)nn2)CC1 [Example FO, 4-({6-[(Pyrazin-2-yl)({5-[5-(trifluoromethyl)-1,2,4-oxadiazol-3-yl]thiophen-2-yl}methyl)amino]pyridazin-3-yl}methyl)-1lambda4-thiomorpholin-1-one]
- EC50 [1]: ≤ 1000 nM
- EC50 [2]: ≥ 10 µM

SMILES: O=C(c1cnnc(N(Cc2ccc(-c3noc(C(F)(F)F)n3)s2)c2cnccn2)c1)N1C[C@@H]2C[C@H]1CO2 [Example FV, 5-[(1S,4S)-2-Oxa-5-azabicyclo[2.2.1]heptane-5-carbonyl]-N-(pyrazin-2-yl)-N-({5-[5-(trifluoromethyl)-1,2,4-oxadiazol-3-yl]thiophen-2-yl}methyl)pyridazin-3-amine]
- EC50 [1]: ≤ 1000 nM
- EC50 [2]: ≥ 10 µM

SMILES: COC1(C(F)(F)F)CN(C(=O)c2cnnc(N(Cc3ccc(-c4noc(C(F)(F)F)n4)s3)c3cnccn3)c2)C1 [Example GL, 5-[3-Methoxy-3-(trifluoromethyl)azetidine-1-carbonyl]-N-(pyrazin-2-yl)-N-({5-[5-(trifluoromethyl)-1,2,4-oxadiazol-3-yl]thiophen-2-yl}methyl)pyridazin-3-amine]
- EC50 [1]: ≤ 1000 nM
- EC50 [2]: ≥ 10 µM

SMILES: FC(F)(F)c1cnnc(N(Cc2ccc(-c3noc(C(F)(F)F)n3)s2)c2cnccn2)c1 [Example EF, N-(Pyrazin-2-yl)-5-(trifluoromethyl)-N-({5-[5-(trifluoromethyl)-1,2,4-oxadiazol-3-yl]thiophen-2-yl}methyl)pyridazin-3-amine]
- EC50 [1]: 1000 to 10000 nM
- EC50 [2]: ≥ 10 µM

SMILES: O=C(c1ccc(N(Cc2ccc(-c3noc(C(F)(F)F)n3)s2)c2cnccn2)nn1)N1CC(O)(C(F)(F)F)C1 [Example FK, 1-{6-[(Pyrazin-2-yl)({5-[5-(trifluoromethyl)-1,2,4-oxadiazol-3-yl]thiophen-2-yl}methyl)amino]pyridazine-3-carbonyl}-3-(trifluoromethyl)azetidin-3-ol]
- EC50 [1]: ≤ 1000 nM
- EC50 [2]: ≥ 10 µM

SMILES: Cc1cnc(N(Cc2ccc(-c3noc(C(F)(F)F)n3)s2)c2cnccn2)cn1 [Example BH, 5-Methyl-N-(pyrazin-2-yl)-N-({5-[5-(trifluoromethyl)-1,2,4-oxadiazol-3-yl]thiophen-2-yl}methyl)pyrazin-2-amine]
- EC50 [1]: 1000 to 10000 nM
- EC50 [2]: ≥ 10 µM

SMILES: CN1CCN(C(=O)c2cnnc(N(Cc3ccc(-c4noc(C(F)(F)F)n4)s3)c3cnccn3)c2)CC1 [Example EC, 5-(4-Methylpiperazine-1-carbonyl)-N-(pyrazin-2-yl)-N-({5-[5-(trifluoromethyl)-1,2,4-oxadiazol-3-yl]thiophen-2-yl}methyl)pyridazin-3-amine]
- EC50 [1]: ≤ 1000 nM
- EC50 [2]: ≥ 10 µM

SMILES: O=C(c1cnnc(N(Cc2ccc(-c3noc(C(F)(F)F)n3)s2)c2cnccn2)c1)N1CCS(=O)(=O)CC1 [Example ED, 4-{6-[(Pyrazin-2-yl)({5-[5-(trifluoromethyl)-1,2,4-oxadiazol-3-yl]thiophen-2-yl}methyl)amino]pyridazine-4-carbonyl}-1λ^6-thiomorpholine-1,1-dione]
- EC50 [1]: ≤ 1000 nM
- EC50 [2]: ≥ 10 µM

SMILES: O=C(c1nccnc1N(Cc1ccc(-c2noc(C(F)(F)F)n2)s1)c1cnccn1)N1CCC1 [Example GP, 3-(Azetidine-1-carbonyl)-N-(pyrazin-2-yl)-N-({5-[5-(trifluoromethyl)-1,2,4-oxadiazol-3-yl]thiophen-2-yl}methyl)pyrazin-2-amine]
- EC50 [1]: 1000 to 10000 nM
- EC50 [2]: ≥ 10 µM

SMILES: O=C(c1ccc(N(Cc2ccc(-c3noc(C(F)(F)F)n3)s2)c2cnccn2)nn1)N1CCCC1 [Example FI, N-(Pyrazin-2-yl)-6-(pyrrolidine-1-carbonyl)-N-({5-[5-(trifluoromethyl)-1,2,4-oxadiazol-3-yl]thiophen-2-yl}methyl)pyridazin-3-amine]
- EC50 [1]: ≤ 1000 nM
- EC50 [2]: ≥ 10 µM

SMILES: O=C(c1cnnc(N(Cc2ccc(-c3noc(C(F)(F)F)n3)s2)c2cnccn2)c1)N1C[C@H]2C[C@@H]1CO2 [Example FW, 5-[(1R,4R)-2-Oxa-5-azabicyclo[2.2.1]heptane-5-carbonyl]-N-(pyrazin-2-yl)-N-({5-[5-(trifluoromethyl)-1,2,4-oxadiazol-3-yl]thiophen-2-yl}methyl)pyridazin-3-amine]
- EC50 [1]: ≤ 1000 nM
- EC50 [2]: ≥ 10 µM

SMILES: COc1cncc(N(Cc2ccc(-c3noc(C(F)(F)F)n3)s2)c2cc(C(F)(F)F)cnn2)n1 [Example EN, N-(6-Methoxypyrazin-2-yl)-5-(trifluoromethyl)-N-({5-[5-(trifluoromethyl)-1,2,4-oxadiazol-3-yl]thiophen-2-yl}methyl)pyridazin-3-amine]
- EC50 [1]: ≤ 1000 nM
- EC50 [2]: ≥ 10 µM

SMILES: O=C(c1cnnc(N(Cc2ccc(-c3noc(C(F)(F)F)n3)s2)c2cnccn2)c1)N1CC(C(F)(F)F)C1 [Example GJ, N-(Pyrazin-2-yl)-N-({5-[5-(trifluoromethyl)-1,2,4-oxadiazol-3-yl]thiophen-2-yl}methyl)-5-[3-(trifluoromethyl)azetidine-1-carbonyl]pyridazin-3-amine]
- EC50 [1]: ≤ 1000 nM
- EC50 [2]: ≥ 10 µM

SMILES: COC1CN(C(=O)c2cnnc(N(Cc3ccc(-c4noc(C(F)(F)F)n4)s3)c3cnccn3)c2)C1 [Example DZ, 5-(3-Methoxyazetidine-1-carbonyl)-N-(pyrazin-2-yl)-N-({5-[5-(trifluoromethyl)-1,2,4-oxadiazol-3-yl]thiophen-2-yl}methyl)pyridazin-3-amine]
- EC50 [1]: ≤ 1000 nM
- EC50 [2]: ≥ 10 µM

SMILES: FC(F)(F)c1nc(-c2ccc(CN(c3cnccn3)c3ccc(CN4CCOCC4)nn3)s2)no1 [Example FN, 6-[(Morpholin-4-yl)methyl]-N-(pyrazin-2-yl)-N-({5-[5-(trifluoromethyl)-1,2,4-oxadiazol-3-yl]thiophen-2-yl}methyl)pyridazin-3-amine]
- EC50 [1]: ≤ 1000 nM
- EC50 [2]: ≥ 10 µM
